Data published in patent publication US12358949B2, “Defensin fragments for use in therapy or prophylaxis” (priority 2019, dated 2025).
Like-named read-outs stand apart in the source and are kept apart here. Where a SMILES comes first, the peptide text is derived from it. Bridges are numbered along the chain shown (N, C = ends).

Tests used:
S. aureus ATCC 25923 = assay type: cell-based
Description: (§1) The tested bacteria were incubated overnight in 1×TSB broth, centrifuged and washed with 10 mM sodium phosphate buffer containing 1% (w/v) TSB broth. 5×10^5 cfu/ml bacteria were mixed with different peptide concentrations in 10 mM sodium phosphate buffer with 1% (w/v) TSB (final volume 100 μl) and incubated for 2 hours at 37° C. Afterwards we added 100 μl 2×TSB broth and we measured the optical density at 600 nm (Spark 10M, Tecan, Austria). Bacterial growth was monitored for 12 hours, growing at 37° C. with shaking during the measurements each 30 minutes, except for Akkermansia muciniphila which were incubated at 37° C. in an anaerobic jar and growth was measured after 72 hours.

P. aeruginosa PAO1 = assay type: cell-based
Description: as §1

Y. enterocolitica = assay type: cell-based
Description: as §1

A. baumannii 4-MRGN = assay type: cell-based
Description: as §1

K. pneumoniae 3-MRGN = assay type: cell-based; conditions: K. pneumoniae 3-MRGN; after 12 hours
Description: as §1

P. aeruginosa XPAT2 = assay type: cell-based
Description: as §1

E. coli JM83 = assay type: cell-based
Description: as §1

A. baumannii DSM 30007 = assay type: cell-based
Description: as §1

K. pneumoniae DSM 30104 = assay type: cell-based
Description: as §1

P. aeruginosa ATCC 27853 = assay type: cell-based
Description: as §1

E. faecium DSM 20477 = assay type: cell-based
Description: as §1

P. aeruginosa 4-MRGN = assay type: cell-based
Description: as §1

S. aureus USA300 = assay type: cell-based
Description: as §1

E. faecium 475747 = assay type: cell-based
Description: as §1

P. aeruginosa XPAT1 = assay type: cell-based
Description: as §1

C. albicans 529L = assay type: cell-based
pathogenic bacteria = test: Radial diffusion assay, HD-5 fragments; assay type: cell-based; conditions: pathogenic Gram-positive and Gram-negative bacteria (FIG. 4)
Description: A heat map system with high activity (inhibition zone in the RDA>5 mm), low activity (2.5 to 5 mm) and no activity (2.5 mm) was used.
(§2) Antimicrobial activity of all peptides was tested with a modified radial diffusion assay from Lehrer et al^12 Shortly described, log-phase bacteria grew (anaerobic bacteria with AnaeroGen, Oxoid in anaerobic jars) in liquid tryptic soy broth (TSB) (Becton Dickinson). After several wash steps in 10 mM sodium phosphate buffer pH 7.4, 4×10^6 cfu/ml was used per assay. To measure the antibacterial effect of the identified peptide fragments, the bacteria were incubated in 10 mM sodium phosphate (pH 7.4) containing 0.3 mg/ml TSB powder and 1% (w/v) low EEO-agarose (Applichem). Peptide fragments were then pipetted into punched wells and allowed to diffuse for 3 hours at 37° C. After that a nutrient rich gel with 6% TSB (w/v) and 1% agarose in 10 mM sodium phosphate buffer was poured on top of the first gel. After 24 hours the inhibition zones were measured. […] All experiments were carried out at least three times.

commensal bacteria = test: Radial diffusion assay, HD-5 fragments; assay type: cell-based; conditions: 4 μg fragment, 2 μg full-length peptide; commensal bacteria (FIG. 3)
Description: In the RDA 2 μg of the full length and 4 μg of each fragment were used. An inhibition zone greater than 5 mm was determined as high activity, between 2.5 and 5 mm as low activity and 2.5 mm were the diameter of the punched well and therefore no activity.
as §2

E. coli MC1000 = test: Transmission electron microscopy of peptide treated bacteria; assay type: cell-based; conditions: 200 μg/ml, 2 hours
Description: Transmission electron microcscopy experiments were performed as previously described^11. 6×10^8 cfu E. coli MC1000 was incubated with 200 μg/ml of each peptide for 2 hours. Bacteria were fixed in Karnovsky's fixative, embedded in agarose, coagulated, cut in small blocks and fixed again in Karnovsky's solution. After post-fixation and embedding in glycid ether blocks were cut using an ultra-microtome. Sections (30 nm) were mounted on copper grids and analyzed using a Zeiss LIBRA 120 transmissions electron microscope.

[1] = Incubation of reduced peptide with human duodenal fluid, LC/MS; assay type: in vitro ADME; conditions: after reduction with 2 mM TCEP; duodenal fluid 30 minutes at 37° C.
Description: 2.5 μg of HD-5 or HD-6 were incubated in 50 mM NH4HCO3 buffer (pH 8.0) (Fluka) with 2 mM tris(2-carboxyethyl) phosphine for 15 minutes at 37° C. Afterwards human duodenal fluid was added and incubated for additional 30 minutes at 37° C. At last, formic acid and acetonitrile was added in a final concentration of 0.5% and 10%, respectively, and analyzed the samples by mass spectrometry. Mass spectrometry was performed as a LC/MS system using an Agilent 1200 series HPLC with an Agilent Advanced Bio Peptide Map (2.1×150 mm, 2.7 μm) column with a flow of 0.4 ml/min at 55° C. column temperature and a 6540 UHD Q-TOF LC/MS system (Agilent) for mass analysis. The samples were separated by a gradient of acetonitrile in 0.1% formic acid. The gradient started at 2% acetonitrile for 4 minutes and then increased during 35 minutes to 45%. Mass spectrometric analyses were performed in single MS mode from 100 to 3400 m/z with positive ion polarity and were analyzed by Agilent MassHunter Quantitative Analysis B 06.00 software.

## CC[C@H](C)[C@@H]1NC(=O)[C@H](CC(C)C)NC(=O)[C@@H]2CSSC[C@@H]3NC(=O)[C@H](CO)NC(=O)[C@@H](NC(=O)[C@@H](N)C(C)C)CSSC[C@@H](C(=O)N[C@H](C(=O)N[C@@H](CCCNC(=N)N)C(=O)N[C@H](C(=O)O)C(C)C)[C@@H](C)O)NC(=O)[C@H](CSSC[C@H](NC(=O)[C@H](Cc4ccccc4)NC(=O)[C@H](C(C)C)NC(=O)[C@H](CC(C)C)NC(=O)[C@H](CCCNC(=N)N)NC3=O)C(=O)N[C@@H](CCCNC(=N)N)C(=O)N[C@@H](CCCNC(=N)N)C(=O)N[C@@H]([C@@H](C)O)C(=O)N[C@@H](CCC(=O)O)C(=O)N[C@@H](CC(C)C)C(=O)N[C@@H](CCCNC(=N)N)C(=O)N[C@@H](C(C)C)C(=O)NCC(=O)N[C@@H](CC(N)=O)C(=O)N2)NC(=O)[C@H](Cc2ccc(O)cc2)NC(=O)[C@H]([C@@H](C)O)NC(=O)[C@H](Cc2ccccc2)NC(=O)[C@H](CO)NC(=O)[C@H](C(C)C)NC(=O)CNC(=O)CNC1=O [HNP-4fl, reference compound] (H-VCSCRLVFCRRTELRVGNCLIGGVSFTYCCTRV-OH; disulfide 2-30, 4-19, 9-29 (inferred); N-terminus and C-terminus assumed)
S. aureus ATCC 25923; ATCC 25923, 12 h
  MIC: 6.25 µM
S. aureus ATCC 25923; S. aureus ATCC25923, after 12 hours
  MIC: 23.2 mg/L
P. aeruginosa PAO1; P. aeruginosa PAO1, after 12 hours
  MIC: 46.4 mg/L
P. aeruginosa PAO1; PAO1, 12 h
  MIC: 12.5 µM
Y. enterocolitica; 12 h
  MIC: 12.5 µM
Y. enterocolitica; Y. enterocolitica, after 12 hours
  MIC: 46.4 mg/L
A. baumannii 4-MRGN; 4-MRGN, 12 h
  MIC: 12.5 µM
A. baumannii 4-MRGN; A. baumannii 4-MRGN, after 12 hours
  MIC: 46.4 mg/L
K. pneumoniae 3-MRGN
  MIC: >>>
P. aeruginosa XPAT2; P. aeruginosa XPAT2, after 12 hours
  MIC: 46.4 mg/L
P. aeruginosa XPAT2; XPAT2, 12 h
  MIC: 12.5 µM
E. coli JM83; E. coli JM83, after 12 hours
  MIC: 46.4 mg/L
E. coli JM83; JM83, 12 h
  MIC: 12.5 µM
A. baumannii DSM 30007; A. baumannii DSM30007, after 12 hours
  MIC: 11.6 mg/L
A. baumannii DSM 30007; DSM 30007, 12 h
  MIC: 3.125 µM
K. pneumoniae DSM 30104; DSM 30104, 12 h
  MIC: 100 µM
K. pneumoniae DSM 30104; K. pneumoniae DSM30104, after 12 hours
  MIC: 371.5 mg/L
P. aeruginosa ATCC 27853; ATCC 27853, 12 h
  MIC: 6.25 µM
P. aeruginosa ATCC 27853; P. aeruginosa ATCC 27853, after 12 hours
  MIC: 23.2 mg/L
E. faecium DSM 20477; DSM 20477, 12 h
  MIC: 6.25 µM
E. faecium DSM 20477; E. faecium DSM20477, after 12 hours
  MIC: 23.2 mg/L
P. aeruginosa 4-MRGN; 4-MRGN, 12 h
  MIC: 50 µM
P. aeruginosa 4-MRGN; P. aeruginosa 4-MRGN, after 12 hours
  MIC: 185.8 mg/L
S. aureus USA300; S. aureus USA300, after 12 hours
  MIC: 23.2 mg/L
S. aureus USA300; USA300, 12 h
  MIC: 6.25 µM
E. faecium 475747; 475747, 12 h
  MIC: 3.125 µM
E. faecium 475747; E. faecium 475747, after 12 hours
  MIC: 11.6 mg/L
P. aeruginosa XPAT1; P. aeruginosa XPAT1, after 12 hours
  MIC: 46.4 mg/L
P. aeruginosa XPAT1; XPAT1, 12 h
  MIC: 12.5 µM
C. albicans 529L; 529L, 24 h
  MIC: 50 µM
C. albicans 529L; C. albicans 529L, after 24 hours (Table 5)
  MIC: 185.8 mg/L

## CC[C@H](C)[C@H](NC(=O)[C@H](CCC(=O)O)NC(=O)[C@H](CS)NC(=O)[C@@H](NC(=O)CNC(=O)[C@H](CO)NC(=O)[C@H](CC(C)C)NC(=O)[C@H](CO)NC(=O)[C@H](CCC(=O)O)NC(=O)[C@H](CCCNC(=N)N)NC(=O)[C@@H](NC(=O)[C@H](C)NC(=O)[C@H](CS)NC(=O)[C@H](CCCNC(=N)N)NC(=O)CNC(=O)[C@@H](NC(=O)[C@H](CCCNC(=N)N)NC(=O)[C@H](CS)NC(=O)[C@H](Cc1ccc(O)cc1)NC(=O)[C@H](CS)NC(=O)[C@@H](NC(=O)[C@H](C)N)[C@@H](C)O)[C@@H](C)O)[C@@H](C)O)C(C)C)C(=O)N[C@@H](CO)C(=O)NCC(=O)N[C@@H](CCCNC(=N)N)C(=O)N[C@@H](CC(C)C)C(=O)N[C@@H](Cc1ccc(O)cc1)C(=O)N[C@@H](CCCNC(=N)N)C(=O)O [HD-51-28] (H-ATCYCRTGRCATRESLSGVCEISGRLYR-OH; N-terminus and C-terminus assumed)
Pathogenic bacteria
  antimicrobial activity in radial diffusion assay: only minimally active or more selective in terms of different strains
Commensal bacteria
  antimicrobial activity in radial diffusion assay: exhibited antimicrobial properties, albeit to a lesser extent than HD-51-9
E. coli MC1000
  phenotype of peptide treated bacteria (TEM): bigger aggregation inside the bacteria

## CC[C@H](C)[C@H](NC(=O)[C@H](CCC(=O)O)NC(=O)[C@H](CS)NC(=O)[C@@H](NC(=O)CNC(=O)[C@H](CO)NC(=O)[C@H](CC(C)C)NC(=O)[C@H](CO)NC(=O)[C@H](CCC(=O)O)NC(=O)[C@H](CCCNC(=N)N)NC(=O)[C@@H](NC(=O)[C@H](C)NC(=O)[C@H](CS)NC(=O)[C@H](CCCNC(=N)N)NC(=O)CNC(=O)[C@@H](N)[C@@H](C)O)[C@@H](C)O)C(C)C)C(=O)N[C@@H](CO)C(=O)NCC(=O)N[C@@H](CCCNC(=N)N)C(=O)N[C@@H](CC(C)C)C(=O)N[C@@H](Cc1ccc(O)cc1)C(=O)N[C@@H](CCCNC(=N)N)C(=O)N[C@@H](CC(C)C)C(=O)N[C@@H](CS)C(=O)N[C@@H](CS)C(=O)N[C@@H](CCCNC(=N)N)C(=O)O [HD-57-32] (H-TGRCATRESLSGVCEISGRLYRLCCR-OH; N-terminus and C-terminus assumed)
Pathogenic bacteria
  antimicrobial activity in radial diffusion assay: strong effect on the growth of every tested bacterium
A. baumannii 4-MRGN; 4-MRGN, 12 h
  MIC: 25 µM
A. baumannii 4-MRGN; A. baumannii 4-MRGN, after 12 hours, listed as 7-32
  MIC: 72.25 mg/L
P. aeruginosa ATCC 27853; ATCC 27853, 12 h
  MIC: 50 µM
P. aeruginosa ATCC 27853; P. aeruginosa ATCC 27853, after 12 hours, listed as 7-32
  MIC: 144.5 mg/L
E. faecium 475747; 475747, 12 h
  MIC: 25 µM
E. faecium 475747; E. faecium 475747, after 12 hours, listed as 7-32
  MIC: 72.2 mg/L
Commensal bacteria
  antimicrobial activity in radial diffusion assay: exhibited antimicrobial properties, albeit to a lesser extent than HD-51-9

## C[C@H](N)C(=O)N[C@H](C(=O)N[C@@H](CS)C(=O)N[C@@H](Cc1ccc(O)cc1)C(=O)N[C@@H](CS)C(=O)N[C@@H](CCCNC(=N)N)C(=O)N[C@H](C(=O)NCC(=O)N[C@@H](CCCNC(=N)N)C(=O)N[C@@H](CS)C(=O)N[C@@H](C)C(=O)N[C@H](C(=O)N[C@@H](CCCNC(=N)N)C(=O)O)[C@@H](C)O)[C@@H](C)O)[C@@H](C)O [HD-51-13] (H-ATCYCRTGRCATR-OH; N-terminus and C-terminus assumed)
Commensal bacteria
  antimicrobial activity in radial diffusion assay: exhibited antimicrobial properties, albeit to a lesser extent than HD-51-9
E. coli MC1000
  phenotype of peptide treated bacteria (TEM): bigger aggregation inside the bacteria

## AFTCHCRRSCYSTEYSYGTCTVMGINHRFCCL [HD-6]
[1]
  susceptibility to proteolytic digestion: protected against proteolytic digestion
